Assays:
Format in all cases: in vivo
[1] = system: southern crabgrass; test: Test Example 4: herbicidal effect test by treatment of leave and stem in dry field farming (seven days after seeding); conditions: 120 g/10a active ingredient; emulsion sprayed seven days after seeding; evaluated 14 days after treatment
Method in brief: (§1)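 Weeds were seeded at 20 seeds per species into the top 1 cm of alluvial upland soil in pots, then sprayed 7 days after seeding with water-diluted emulsifiable concentrate at 100 L/10 a, giving 120 g active ingredient/10 a. Duplicate pots; herbicidal rate (%) was 14 days post-treatment, from dry weight versus untreated.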

[2] = system: Amaranthus viridis; test: as above; conditions: 120 g/10a active ingredient; emulsion sprayed seven days after seeding; evaluated 14 days after treatment
Method in brief: as §1

[3] = system: Echinochloa crus-galli; test: as above; conditions: 120 g/10a active ingredient; emulsion sprayed seven days after seeding; evaluated 14 days after treatment
Method in brief: as §1

[4] = system: Chenopodium album; test: as above; conditions: 120 g/10a active ingredient; emulsion sprayed seven days after seeding; evaluated 14 days after treatment
Method in brief: as §1

[5] = system: Scirpus juncoides; test: Test Example 2: herbicidal effect test by treatment during growing period in paddy rice cultivation (seven days after seeding); conditions: 120 g/10a active ingredient, assessed 14 days after treatment, dry weight vs untreated area
Method in brief: (§2)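 Emulsion formulations, diluted in water, applied dropwise to flooded pots (about 3 cm water) 7 days post-seeding at 120 g a.i./10 ares. Weeds sown 30 seeds each, 0–1 cm deep in puddled paddy soil; greenhouse. Readout: % reduction in plant dry weight vs untreated, day 14, duplicates.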

[6] = system: broad leaf weeds (Lindernia pyxidaria and Monochoria vaginalis); test: as above; conditions: 120 g/10a active ingredient, assessed 14 days after treatment, dry weight vs untreated area
Method in brief: as §2

[7] = system: Echinochloa crus-galli; test: as above; conditions: 120 g/10a active ingredient, assessed 14 days after treatment, dry weight vs untreated area
Method in brief: as §2

[8] = system: southern crabgrass; test: Test Example 3: herbicidal effect test by treatment of dry field farming soil (one day after seeding); conditions: 120 g/10a active ingredient, evaluated 14 days after treatment
Method in brief: (§3)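 Herbicidal rate (%) = {1 − treated/untreated mean plant dry weight} × 100, scored 14 days after spraying, duplicate pots per concentration. Emulsified compound was water-diluted and applied to soil surface one day post-seeding at 120 g a.i. per 10 ares.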

[9] = system: Amaranthus viridis; test: as above; conditions: 120 g/10a active ingredient, evaluated 14 days after treatment
Method in brief: as §3

[10] = system: Echinochloa crus-galli; test: as above; conditions: 120 g/10a active ingredient, evaluated 14 days after treatment
Method in brief: as §3

[11] = system: Chenopodium album; test: as above; conditions: 120 g/10a active ingredient, evaluated 14 days after treatment
Method in brief: as §3

[12] = system: Scirpus juncoides; test: Test Example 1: herbicidal effect test by treatment of rice paddy soil (immediately after seeding); conditions: 120 g/10a active ingredient, dry weight vs untreated area, 14 days after treatment
Method in brief: (§4)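 Puddled, fertilized (N:P:K=17:17:17) paddy soil in Wagner pots; seeds sown 0–1 cm deep, flooded to about 3 cm. Emulsifiable formulations diluted in water and dropped into the water immediately after seeding at 120 g active ingredient per 10 ares; greenhouse. Herbicidal rate from dry weight vs untreated at 14 days.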

[13] = system: broad leaf weeds (Lindernia pyxidaria and Monochoria vaginalis); test: as above; conditions: 120 g/10a active ingredient, dry weight vs untreated area, 14 days after treatment
Method in brief: as §4

[14] = system: Echinochloa crus-galli; test: as above; conditions: 120 g/10a active ingredient, dry weight vs untreated area, 14 days after treatment
Method in brief: as §4

Structure (SMILES) | herbicidal effect (herbicidal rate), southern crabgrass [1] | herbicidal effect (herbicidal rate), Amaranthus viridis [2] | herbicidal effect (herbicidal rate), Echinochloa crus-galli [3] | herbicidal effect (herbicidal rate), Chenopodium album [4] | Herbicidal rate (%) Scirpus juncoides [5] | Herbicidal rate (%) Lindernia pyxidaria [6] | Herbicidal rate (%) Monochoria vaginalis [6] | Herbicidal rate (%) Echinochloa crus-galli [7] | herbicidal rate, southern crabgrass [8] | herbicidal rate, Amaranthus viridis [9] | herbicidal rate, Echinochloa crus-galli [10] | herbicidal rate, Chenopodium album [11] | Herbicidal rate (%) Scirpus juncoides [12] | Herbicidal rate (%) Lindernia pyxidaria [13] | Herbicidal rate (%) Monochoria vaginalis [13] | Herbicidal rate (%) Echinochloa crus-galli [14]
COCC(C)n1oc(=O)c(Cc2ccccc2N(C(C)=O)S(=O)(=O)C(F)(F)F)c1C (stereo not shown) [Compound 1-304] | 90% | 40% | 90% | 40% | 90% | 90% | 90% | 90% | 90% | 90% | 90% | 90% | 90% | 90% | 90% | 90%
CCCCC(C)n1oc(=O)c(Cc2ccccc2N(S(=O)(=O)C(F)(F)F)S(=O)(=O)C(F)(F)F)c1C (stereo not shown) [Compound 1-977] | 80% | 60% | 90% | 80% | 90% | 80% | 90% | 100% | 80% | 70% | 80% | 50% | 90% | 100% | 100% | 100%
CCC(C)n1oc(=O)c(Cc2ccccc2N(C(=O)COC)S(=O)(=O)C(F)(F)F)c1C (stereo not shown) [Compound 1-444] | 90% | 40% | 90% | 40% | 90% | 90% | 90% | 90% | 90% | 90% | 90% | 90% | 90% | 90% | 90% | 90%
CCN(CC)C(=O)n1oc(=O)c(Cc2ccccc2NS(=O)(=O)C(F)(F)F)c1C [Compound 1-248] | 40% | 40% | 80% | 0% | 90% | 90% | 90% | 40% | 80% | 50% | 70% | 60% | 50% | 90% | 80% | 60%
CCCC(c1ccccc1)n1oc(=O)c(Cc2ccccc2N(S(=O)(=O)C(F)(F)F)S(=O)(=O)C(F)(F)F)c1C (stereo not shown) [Compound 1-1039] | 90% | 40% | 90% | 40% | 80% | 70% | 80% | 100% | 90% | 0% | 90% | 0% | 90% | 90% | 80% | 90%
CCC(C)n1oc(=O)c(Cc2ccccc2N(S(=O)(=O)CC)S(=O)(=O)C(F)(F)F)c1C (stereo not shown) [Compound 1-913] | 90% | 40% | 90% | 40% | 90% | 90% | 90% | 90% | 90% | 90% | 90% | 90% | 90% | 90% | 90% | 90%
CCCC(C)n1oc(=O)c(Cc2ccccc2N(S(=O)(=O)C(F)(F)F)S(=O)(=O)C(F)(F)F)c1C (stereo not shown) [Compound 1-970] | 70% | 60% | 90% | 40% | 90% | 70% | 90% | 100% | 90% | 60% | 90% | 40% | 100% | 100% | 100% | 100%
CCCCC(CC)Cn1oc(=O)c(Cc2ccccc2N(S(=O)(=O)C(F)(F)F)S(=O)(=O)C(F)(F)F)c1C (stereo not shown) [Compound 1-980] | 40% | 40% | 60% | 40% | 80% | 80% | 80% | 100% | 60% | 40% | 40% | 40% | 90% | 100% | 80% | 100%
CCC(C)n1oc(=O)c(Cc2ccccc2N(C(=O)C2CCCCC2)S(=O)(=O)C(F)(F)F)c1C (stereo not shown) [Compound 1-432] | 90% | 40% | 90% | 40% | 90% | 90% | 90% | 90% | 90% | 90% | 90% | 90% | 90% | 90% | 90% | 90%
Cc1c(Cc2ccccc2NS(=O)(=O)C(F)(F)F)c(=O)on1C(C)C [Compound 1-100] | 90% | 30% | 90% | 90% | 90% | 90% | 100% | 90% | 100% | 100% | 100% | 100% | 90% | 100% | 100% | 90%

Reference: patent US11109593B2, “Isoxazolin-5-one derivative and herbicide containing same as active ingredient” (HOKKO CHEMICAL INDUSTRY CO., LTD., priority 2017, dated 2021)
